Data as given in patent US10781214B2, “Kinase inhibitor against wild-type and mutant EGFR” (PRECEDO PHARMACEUTICALS CO., LTD, priority 2015, dated 2020).
Like-named read-outs stand apart in the source and are kept apart here.

Columns and labels:
[1] = system: NCI-H3255 (expressing EGFR L858R mutant gene); assay: Cancer cell growth, Cell Titer-Glo, 72 h: NCI-H3255; assay type: cell-based; settings: Homo sapiens
Source text: (§1) Compounds of the present invention were further evaluated for their selectivity in inhibiting proliferation of cancer cells by testing effects of the novel kinase inhibitors on proliferation of cancer cells. In the examples the following cells were selected: human non-small cell lung cancer cell NCI-H1975 (expressing EGFR L858R/T790M double-mutant gene), human-derived non-small cell lung cancer cell PC-9 (expressing EGFR delE746_A750 mutant gene), human-derived non-small cell lung cancer cell HCC827 (expressing EGFR delE746_A750 mutant gene), human lung adenocarcinoma cell HCC4006 (expressing EGFR delE746_A750 mutant gene), human non-small cell lung cancer cell NCI-H3255 (expressing EGFR L858R mutant gene), human skin squamous carcinoma cell A431 (expressing wild-type EGFR gene), human non-small cell lung cancer cell A549 (expressing wild-type EGFR gene), human non-small cell lung cancer cell NCI-H460 (expressing wild-type EGFR gene), human non-small cell lung cancer cell NCI-H2122 (expressing wild-type EGFR gene), Chinese hamster ovary (CHO) cell (Cricetulus griseus, hamster, Chinese, ovary), Chinese hamster lung cell (CHL), mouse pro-B cell BaF3. The cells above were all purchased from (USA).
(§2) The cells were incubated for 72 h, and then the number of viable cells was determined via quantitative determination with a microplate reader by using Cell Titer-Glo® (Promega, the USA) Luminescent Cell Viability Assay kit.

[2] = system: BaF3-TEL-EGFR-L858R (stably expressing EGFR L858R mutant kinase); assay: Cell growth, Cell Titer-Glo, 72 h: BaF3-TEL-EGFR-L858R; assay type: cell-based; settings: Mus musculus
Source text: (§3) In addition, this example further uses: mouse BaF3-TEL-EGFR (stably expressing wild-type EGFR kinase), mouse BaF3-TEL-EGFR-L858R (stably expressing EGFR L858R mutant kinase), mouse BaF3-TEL-EGFR-T790M (stably expressing EGFR T790M mutant kinase), mouse BaF3-FL-EGFR-DeI19 (stably expressing EGFR delE746_A750 mutant kinase), mouse BaF3-FL-EGFR-T790M-L858R (stably expressing EGFR T790M/L858R mutant kinase), mouse BaF3/P210 (stably expressing bcr/abl˜(P210) mutant kinase), mouse BaF3-TEL-ABL-T315I (stably expressing ABLT315I mutant kinase), mouse BaF3-FLT3-ITD (stably expressing FLT3/ITD mutant kinase), mouse BaF3-TEL-JAK2 (stably expressing JAK2 kinase), mouse BaF3-TEL-JAK3 (stably expressing JAK3 kinase), mouse BaF3-TPR-MET (stably expressing MET kinase), mouse BaF3-TEL-BLK (stably expressing BLK kinase), mouse BaF3-TEL-ABL (stably expressing ABL kinase), mouse BaF3-TEL-BMX (stably expressing BMX kinase), mouse BaF3-TEL-ALK (stably expressing ALK kinase). The above cell lines were all constructed by our laboratory according to the following method: the kinase region sequences of human […], EGFR L858R, EGFR T790M, EGFR delE746_A750, EGFR T790M/L858R, bcr/abl˜(P210), ABL T315I, FLT3/ITD, JAK2, JAK3, MET, BLK, ABL, BMX, ALK were amplified respectively by PCR, inserted respectively into MSCV-Puro vectors harboring N-terminal fragment and/or NPM fragment and/or TPR fragment (Clontech), then the vectors were stably transfected into mouse BaF3 cells by retrovirus methods and growth factor IL-3 was removed, eventually obtaining cell lines that are transferred protein (EGFR, EGFR L858R, EGFR T790M, EGFR delE746_A750, EGFR T790M/L858R, bcr/abl˜(P210), ABL T315I, FLT3/ITD, JAK2, JAK3, MET, BLK, ABL, BMX, ALK)-dependent.
as §2

[3] = system: NCI-H1975 (expressing EGFR L858R/T790M double-mutant gene); assay: Cancer cell growth, Cell Titer-Glo, 72 h: NCI-H1975; assay type: cell-based; settings: Homo sapiens
Source text: as §1, §2

[4] = system: A431 (expressing wild-type EGFR gene); assay: Cancer cell growth, Cell Titer-Glo, 72 h: A431; assay type: cell-based; settings: Homo sapiens
Source text: as §1, §2

[5] = system: BaF3-TEL-EGFR-T790M (stably expressing EGFR T790M mutant kinase); assay: Cell growth, Cell Titer-Glo, 72 h: BaF3-TEL-EGFR-T790M; assay type: cell-based; settings: Mus musculus
Source text: as §3, §2

[6] = system: mouse pro-B cell BaF3; assay: Cell growth, Cell Titer-Glo, 72 h: BaF3; assay type: cell-based
Source text: as §1, §2

[7] = system: HCC827 (expressing EGFR delE746_A750 mutant gene); assay: Cancer cell growth, Cell Titer-Glo, 72 h: HCC827; assay type: cell-based; settings: Homo sapiens
Source text: as §1, §2

[8] = system: NCI-H460 (expressing wild-type EGFR gene); assay: Cancer cell growth, Cell Titer-Glo, 72 h: NCI-H460; assay type: cell-based; settings: Homo sapiens
Source text: as §1, §2

[9] = system: PC-9 (expressing EGFR delE746_A750 mutant gene); assay: Cancer cell growth, Cell Titer-Glo, 72 h: PC-9; assay type: cell-based; settings: Homo sapiens
Source text: as §1, §2

[10] = system: A549 (expressing wild-type EGFR gene); assay: Cancer cell growth, Cell Titer-Glo, 72 h: A549; assay type: cell-based; settings: Homo sapiens
Source text: as §1, §2

[11] = system: BaF3-TEL-EGFR (stably expressing wild-type EGFR kinase); assay: Cell growth, Cell Titer-Glo, 72 h: BaF3-TEL-EGFR; assay type: cell-based; settings: Mus musculus
Source text: as §3, §2

[12] = system: BaF3-FL-EGFR-T790M-L858R (stably expressing EGFR T790M/L858R mutant kinase); assay: Cell growth, Cell Titer-Glo, 72 h: BaF3-FL-EGFR-T790M-L858R; assay type: cell-based; settings: Mus musculus, BaF3-FL-EGFR-T790M-L858R cells
Source text: as §3, §2

[13] = system: NCI-H2122 (expressing wild-type EGFR gene); assay: Cancer cell growth, Cell Titer-Glo, 72 h: NCI-H2122; assay type: cell-based; settings: Homo sapiens, NCI-H2122 cells
Source text: as §1, with “The cells above were all purchased from (USA).” left out
as §2

[14] = system: EGFR and signaling proteins in A549, H1975, PC-9, H3255 and HCC827 cells; assay: Effect on cell signaling pathways (phosphorylation of EGFR and downstream proteins); assay type: cell-based, human; settings: A549, H1975, PC-9, H3255, HCC827 cells; 4 hour-treatment; 0.01-3 μM
[15] = system: BaF3-FL-EGFR-Del19 (stably expressing EGFR delE746_A750 mutant kinase); assay: Cell growth, Cell Titer-Glo, 72 h: BaF3-FL-EGFR-Del19; assay type: cell-based; settings: Mus musculus, BaF3-FL-EGFR-Del19 cells
Source text: In addition, this example further uses: mouse BaF3-TEL-EGFR (stably expressing wild-type EGFR kinase), mouse BaF3-TEL-EGFR-L858R (stably expressing EGFR L858R mutant kinase), mouse BaF3-TEL-EGFR-T790M (stably expressing EGFR T790M mutant kinase), mouse BaF3-FL-EGFR-DeI19 (stably expressing EGFR delE746_A750 mutant kinase), mouse BaF3-FL-EGFR-T790M-L858R (stably expressing EGFR T790M/L858R mutant kinase), mouse BaF3/P210 (stably expressing bcr/abl˜(P210) mutant kinase), mouse BaF3-TEL-ABL-T315I (stably expressing ABLT315I mutant kinase), mouse BaF3-FLT3-ITD (stably expressing FLT3/ITD mutant kinase), mouse BaF3-TEL-JAK2 (stably expressing JAK2 kinase), mouse BaF3-TEL-JAK3 (stably expressing JAK3 kinase), mouse BaF3-TPR-MET (stably expressing MET kinase), mouse BaF3-TEL-BLK (stably expressing BLK kinase), mouse BaF3-TEL-ABL (stably expressing ABL kinase), mouse BaF3-TEL-BMX (stably expressing BMX kinase), mouse BaF3-TEL-ALK (stably expressing ALK kinase). […]
as §2

[16] = NCI-H3255 cells, 72 h, read-out: GI50
[17] = BaF3-TEL-EGFR-L858R cells, read-out: GI50
[18] = NCI-H1975 cells, 72 h, read-out: GI50
[19] = A-431, A431 cells, 72 h, read-out: GI50
[20] = BaF3-TEL-EGFR-T790M cells, read-out: GI50
[21] = BaF3 cells, 72 h, read-out: GI50
[22] = HCC827 cells, 72 h, read-out: GI50
[23] = NCI-H460 cells, 72 h, read-out: GI50
[24] = PC-9 cells, 72 h, read-out: GI50
[25] = A549 cells, 72 h, read-out: GI50
[26] = BaF3-TEL-EGFR cells, read-out: GI50

Row | Compound | GI50 [1, 16] | GI50 [2, 17] | GI50 [3, 18] | GI50 [4, 19] | GI50 [5, 20] | GI50 [6, 21] | GI50 [7, 22] | GI50 [9, 24] | GI50 [10, 25] | GI50 [11, 26] | GI50 [12] | other results
1 | C=CC(=O)Nc1cccc(Nc2nc(Nc3ccc(N4CCN(C(C)=O)CC4)cc3OC)ncc2C(F)(F)F)c1 [CO-1686, reference compound] | 250 nM | 6.3 nM | 440 nM | 1200 nM | 130 nM | 970 nM | 97 nM | 130 nM | 830 nM | 2800 nM |  | GI50 [8, 23]: 2500 nM
2 | C=CC(=O)N1CC[C@@H](n2nc(-c3ccc(OCc4cccc(F)c4)c(Cl)c3)c3c(N)ncnc32)C1 [Compound 4, (R)-1-(3-(4-amino-3-(3-chloro-4-((3-fluorobenzyl)oxy)phenyl)-1H-pyrazolo[3,4-d]pyrimidin-1-yl)pyrrolidin-1-yl)prop-2-en-1-one] | 28 nM | < 0.3 nM | 53 nM | 17 nM |  | 4100 nM | 38 nM | 28 nM | 3700 nM | 13 nM | < 0.3 nM | GI50 [13]: 130 nM
3 | C=CC(=O)N1CCC[C@@H](n2nc(-c3ccc(OCc4cccc(C)n4)c(Cl)c3)c3c(N)ncnc32)C1 [Compound 29, (R)-1-(3-(4-amino-3-(3-chloro-4-((6-methylpyridin-2-yl)methoxy)phenyl)-1H-pyrazolo[3,4-d]pyrimidin-1-yl)piperidin-1-yl)prop-2-en-1-one] | 27 nM | < 0.3 nM | < 0.3 nM | > 10000 nM | < 0.3 nM | > 10000 nM | 36 nM | 35 nM | > 10000 nM | 5400 nM | 6 nM | phosphorylation of EGFR protein [14]: strongly inhibit; phosphorylation of proteins such as AKT308, eIF4E, P70S6K and ERK downstream of EGFR [14]: significant effect; GI50 [8, 23]: 4000 nM
4 | C=CC(=O)N1CCC[C@@H](n2nc(-c3ccc(OCc4cccc(F)c4)c(F)c3)c3c(N)ncnc32)C1 [Compound 13, (R)-1-(3-(4-amino-3-(3-fluoro-4-((3-fluorobenzyl)oxy)phenyl)-1H-pyrazolo[3,4-d]pyrimidin-1-yl)piperidin-1-yl)prop-2-en-1-one] | 15 nM |  | 17 nM |  | < 0.3 nM | 5100 nM | 16 nM | 2 nM | 7000 nM | 2800 nM |  | 
5 | C=CC(=O)Nc1cc(Nc2nccc(-c3cn(C)c4ccccc34)n2)c(OC)cc1N(C)CCN(C)C [AZD9291, reference compound] |  |  |  |  |  |  |  |  |  |  |  | GI50 ([1]; NCI-H3255, 72 h): 31 nM; GI50 [2]: 1.7 nM; GI50 ([3]; NCI-H1975, 72 h): […]; GI50 ([4]; A-431, 72 h): […]; GI50 [5]: 22 nM; GI50 ([6]; BaF3, 72 h): 2700 nM; GI50 ([7]; HCC827, 72 h): 4 nM; GI50 ([8]; NCI-H460, 72 h): 4000 nM; GI50 ([9]; PC-9, 72 h): 3 nM; GI50 ([10]; A549, 72 h): 5000 nM; GI50 [11]: 1800 nM
6 | CCC(=O)N1CCC[C@@H](n2nc(-c3ccc(OCc4cccc(F)c4)c(Cl)c3)c3c(N)ncnc32)C1 [Compound 51, (R)-1-(3-(4-amino-3-(3-chloro-4-((3-fluorobenzyl)oxy)phenyl)-1H-pyrazolo[3,4-d]pyrimidin-1-yl)piperidin-1-yl)propan-1-one] | > 10000 nM | 940 nM | 2700 nM | 9000 nM | 1100 nM | 9200 nM | 3900 nM | 3200 nM | > 10000 nM | 3700 nM | 1700 nM | GI50 [13]: 3900 nM; GI50 [15]: 1200 nM
7 | C=CC(=O)N1CCC[C@@H](n2nc(-c3ccc(OCc4ccccc4)c(F)c3)c3c(N)ncnc32)C1 [Compound 12, (R)-1-(3-(4-amino-3-(4-(benzyloxy)-3-fluorophenyl)-1H-pyrazolo[3,4-d]pyrimidin-1-yl)piperidin-1-yl)prop-2-en-1-one] | 23 nM |  | 80 nM |  | < 0.3 nM | 7400 nM | 39 nM | 11 nM | 4300 nM | 2800 nM |  | 
8 | C=CC(=O)Nc1cc(Cn2nc(-c3ccc(F)c(Cl)c3)c3c(N)ncnc32)ccc1N(C)CCN(C)C [Compound 40] | 3700 nM |  | 1200 nM | 2600 nM |  | 1900 nM | 1600 nM | 1000 nM |  | 1300 nM |  | 
